This assay deals with T1, F508del (Homo sapiens, UniProt P13569, DEL508-508).
T1 construct: expressed in transfected cells
T1 sequence (P13569 with tags, fused parts or gaps DEL508-508): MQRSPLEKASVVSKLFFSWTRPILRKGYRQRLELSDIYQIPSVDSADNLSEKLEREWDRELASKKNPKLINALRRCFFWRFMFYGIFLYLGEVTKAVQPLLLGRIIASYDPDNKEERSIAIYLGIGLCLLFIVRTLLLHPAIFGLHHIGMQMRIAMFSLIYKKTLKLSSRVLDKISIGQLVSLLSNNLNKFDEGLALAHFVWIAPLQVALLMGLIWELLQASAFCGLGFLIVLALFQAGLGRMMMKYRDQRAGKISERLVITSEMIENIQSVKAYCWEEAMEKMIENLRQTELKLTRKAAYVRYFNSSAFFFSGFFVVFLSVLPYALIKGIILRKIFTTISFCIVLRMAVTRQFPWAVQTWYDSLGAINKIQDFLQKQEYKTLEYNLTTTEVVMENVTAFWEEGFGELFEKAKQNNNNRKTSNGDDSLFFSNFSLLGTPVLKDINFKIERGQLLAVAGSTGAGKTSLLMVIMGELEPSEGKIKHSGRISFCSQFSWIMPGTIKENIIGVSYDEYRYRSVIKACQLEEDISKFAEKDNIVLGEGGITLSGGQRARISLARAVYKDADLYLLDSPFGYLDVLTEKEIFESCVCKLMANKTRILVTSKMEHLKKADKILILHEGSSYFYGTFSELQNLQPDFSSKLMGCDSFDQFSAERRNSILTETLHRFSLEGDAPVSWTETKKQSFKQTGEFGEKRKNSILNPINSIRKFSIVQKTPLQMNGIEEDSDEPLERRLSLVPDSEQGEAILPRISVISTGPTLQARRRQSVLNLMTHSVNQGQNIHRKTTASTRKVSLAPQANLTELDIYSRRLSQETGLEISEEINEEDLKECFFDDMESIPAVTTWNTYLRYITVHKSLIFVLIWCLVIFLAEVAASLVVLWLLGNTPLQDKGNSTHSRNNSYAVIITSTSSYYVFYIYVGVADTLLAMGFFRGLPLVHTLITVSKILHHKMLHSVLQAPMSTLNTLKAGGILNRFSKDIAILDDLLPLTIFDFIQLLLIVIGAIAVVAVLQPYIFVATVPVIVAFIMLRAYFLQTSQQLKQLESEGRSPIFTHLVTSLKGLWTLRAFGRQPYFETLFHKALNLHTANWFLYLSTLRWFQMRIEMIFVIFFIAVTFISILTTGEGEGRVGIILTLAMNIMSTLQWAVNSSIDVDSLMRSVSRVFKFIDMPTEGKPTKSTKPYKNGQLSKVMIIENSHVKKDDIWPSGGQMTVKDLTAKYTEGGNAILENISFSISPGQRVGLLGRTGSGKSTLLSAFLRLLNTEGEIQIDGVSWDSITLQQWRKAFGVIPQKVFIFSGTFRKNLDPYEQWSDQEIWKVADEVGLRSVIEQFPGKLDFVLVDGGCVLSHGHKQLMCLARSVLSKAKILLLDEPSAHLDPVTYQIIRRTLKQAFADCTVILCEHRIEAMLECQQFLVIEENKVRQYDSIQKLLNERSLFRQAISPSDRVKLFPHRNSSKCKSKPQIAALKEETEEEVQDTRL
The assay can be described thus: Protocol 1: membrane potential optical assay (FLIPR III, voltage sensing dye), identification of potentiator compounds. The format is cell-based. Particulars: Table 3, compounds of Table 1. Summed up: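 Mouse NIH 3T3 fibroblasts stably expressing F508del, temperature-corrected at 27 °C for 24 h, pretreated with compound, then loaded with voltage-sensing redistribution dye. Forskolin was added in a single step with a chloride gradient (chloride-free gluconate bath; Bath Solution #1 HEPES pH 7.4). Membrane-potential fluorescence read on FLIPR III.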
Turning to `CC1(C)CN(c2nc(C(F)(F)F)ccc2C(=O)NS(=O)(=O)c2cccc(N)n2)C(C)(C)C1` [Compound 1635, N-[(6-amino-2-pyridyl)sulfonyl]-2-(2,2,4,4-tetramethylpyrrolidin-1-yl)-6-(trifluoromethyl)pyridine-3-carboxamide], the EC30 entry was “+++ (“+++” means <3 uM)”.

`CCOc1cccc2c1CN(Cc1c(C)cc(C)cc1C)C2(C)C(=O)NS(=O)(=O)c1ccc2c(c1)CCN2` (stereo not drawn) [Compound 1422, 4-ethoxy-N-indolin-5-ylsulfonyl-1-methyl-2-[(2,4,6-trimethylphenyl)methyl]isoindoline-1-carboxamide]: the EC30 entry is on record as “+++ (“+++” means <3 uM)”.

As to `CC(C)Oc1ccc(-c2ccc(C(=O)NS(=O)(=O)c3cccc(N)n3)c(N3CCC[C@H]3C)n2)cn1` [Compound 1354, N-[(6-amino-2-pyridyl)sulfonyl]-6-(6-isopropoxy-3-pyridyl)-2-[(2R)-2-methylpyrrolidin-1-yl]pyridine-3-carboxamide], the EC30 result is “+++ (“+++” means <3 uM)”. In the case of `CC(C)Oc1ccc(-c2ccc(C(=O)NS(=O)(=O)c3cccc(N)n3)c(N3CCCCC3C)n2)cn1` (stereo not drawn) [Compound 1182, N-[(6-amino-2-pyridyl)sulfonyl]-6-(6-isopropoxy-3-pyridyl)-2-(2-methyl-1-piperidyl)pyridine-3-carboxamide] it was “++ (“++” means between 3 uM and 10 uM)”; in that of `COc1cc(C(C)(C)C)nc(Oc2c(C)cc(C)cc2C)c1C(=O)NS(=O)(=O)c1cccc(N)c1` [Compound 959, N-(3-aminophenyl)sulfonyl-6-tert-butyl-4-methoxy-2-(2,4,6-trimethylphenoxy)pyridine-3-carboxamide], “+++ (“+++” means <3 uM)”; in that of `CC(Cc1ccccc1)Oc1nc(C(C)(C)C)ccc1C(=O)NS(=O)(=O)c1cccc(N)n1` (stereo not drawn) [Compound 1314, N-[(6-amino-2-pyridyl)sulfonyl]-6-tert-butyl-2-(1-methyl-2-phenyl-ethoxy)pyridine-3-carboxamide], “+++ (“+++” means <3 uM)”. With `Cc1cc(C)c(Cn2c(C(=O)NS(=O)(=O)c3cccc(N)c3)cc3ccc(C#N)cc32)c(C)c1` [Compound 1082, N-(3-aminophenyl)sulfonyl-6-cyano-1-[(2,4,6-trimethylphenyl)methyl]indole-2-carboxamide] the entry was “+ (“+” means greater than 10 uM)”; with `C[C@@H]1CN(c2nc(C3CCCCO3)ccc2C(=O)NS(=O)(=O)c2ccccc2)C(C)(C)C1` (stereo partly drawn) [Compound 1868, N-(benzenesulfonyl)-6-tetrahydropyran-2-yl-2-[(4S)-2,2,4-trimethylpyrrolidin-1-yl]pyridine-3-carboxamide], “+++ (“+++” means <3 uM)”.

Regarding `C[C@@H]1CN(c2nc(C3CCCCO3)ccc2C(=O)NS(=O)(=O)c2ccc[nH]c2=O)C(C)(C)C1` (stereo partly drawn) [Compound 1503, N-[(2-oxo-1H-pyridin-3-yl)sulfonyl]-6-tetrahydropyran-2-yl-2-[(4S)-2,2,4-trimethylpyrrolidin-1-yl]pyridine-3-carboxamide], the EC30 result is “++ (“++” means between 3 uM and 10 uM)”.

`Cc1cc(C)c(Oc2nc(C3=CCNCC3)ccc2C(=O)NS(=O)(=O)c2cccc(N)n2)c(C)c1` [Compound 1643, N-[(6-amino-2-pyridyl)sulfonyl]-6-(1,2,3,6-tetrahydropyridin-4-yl)-2-(2,4,6-trimethylphenoxy)pyridine-3-carboxamide]: the EC30 result is “++ (“++” means between 3 uM and 10 uM)”. In the case of `CCCOc1cc(-c2ccc(C(=O)NS(=O)(=O)c3ccc[nH]c3=O)c(N3[C@H](C)CC[C@@H]3C)n2)ccc1Cl` [Compound 1293, 6-(4-chloro-3-propoxy-phenyl)-2-[(2R,5S)-2,5-dimethylpyrrolidin-1-yl]-N-[(2-oxo-1H-pyridin-3-yl)sulfonyl]pyridine-3-carboxamide] it was “++ (“++” means between 3 uM and 10 uM)”; in that of `COc1cc(F)c(F)cc1-c1ccc(C(=O)NS(=O)(=O)c2ccc[nH]c2=O)c(N2C[C@@H](C)CC2(C)C)n1` [Compound 1904, 6-(4,5-difluoro-2-methoxy-phenyl)-N-[(2-oxo-1H-pyridin-3-yl)sulfonyl]-2-[(4S)-2,2,4-trimethylpyrrolidin-1-yl]pyridine-3-carboxamide], “+++ (“+++” means <3 uM)”. With `CC(C)COc1cc(F)cc(-c2ccc(C(=O)NS(=O)(=O)c3cccc(N)n3)c(N3CCCC(C(C)C)C3)n2)c1` (stereo not drawn) [Compound 1098, N-[(6-amino-2-pyridyl)sulfonyl]-6-(3-fluoro-5-isobutoxy-phenyl)-2-(3-isopropyl-1-piperidyl)pyridine-3-carboxamide] the entry was “+++ (“+++” means <3 uM)”; with `CCOc1cccc2c1CN(Cc1c(C)cc(C)cc1C)C2(C)C(=O)NS(=O)(=O)c1ccc(Cl)c(N)c1` (stereo not drawn) [Compound 1587, N-(3-amino-4-chloro-phenyl)sulfonyl-4-ethoxy-1-methyl-2-[(2,4,6-trimethylphenyl)methyl]isoindoline-1-carboxamide], “+++ (“+++” means <3 uM)”. Take `Cc1cc(C)c(Oc2nc(C3=CCSCC3)ccc2C(=O)NS(=O)(=O)c2cccc(N)n2)c(C)c1` [Compound 1517, N-[(6-amino-2-pyridyl)sulfonyl]-6-(3,6-dihydro-2H-thiopyran-4-yl)-2-(2,4,6-trimethylphenoxy)pyridine-3-carboxamide]: the EC30 result is “+++ (“+++” means <3 uM)”. Consider `Cc1cc(OC(C)C)cc(-c2ccc(C(=O)NS(=O)(=O)c3cccc(N)n3)c(N3C[C@@H](C)CC3(C)C)n2)c1` [Compound 1671, N-[(6-amino-2-pyridyl)sulfonyl]-6-(3-isopropoxy-5-methyl-phenyl)-2-[(4S)-2,2,4-trimethylpyrrolidin-1-yl]pyridine-3-carboxamide], for which the EC30 result is “+++ (“+++” means <3 uM)”. With `CC1CCN(c2nc(-c3cc(F)cc(OC(C)C)c3)ccc2C(=O)NS(=O)(=O)c2cc[nH]n2)CC1` [Compound 1042, 6-(3-fluoro-5-isopropoxy-phenyl)-2-(4-methyl-1-piperidyl)-N-(1H-pyrazol-3-ylsulfonyl)pyridine-3-carboxamide] the entry was “+++ (“+++” means <3 uM)”; with `CC(C)Oc1ccc(-c2ccc(C(=O)NS(=O)(=O)c3cccc(N)n3)c(N3CCC(OCC4CC4)CC3)n2)cn1` [Compound 884, N-[(6-amino-2-pyridyl)sulfonyl]-2-[4-(cyclopropylmethoxy)-1-piperidyl]-6-(6-isopropoxy-3-pyridyl)pyridine-3-carboxamide], “++ (“++” means between 3 uM and 10 uM)”. In the case of `Cc1cccc(C)c1Cn1nc(-c2cnc(N(C)C)nc2)cc1C(=O)NS(=O)(=O)c1ccccc1` [Compound 1678, N-(benzenesulfonyl)-5-[2-(dimethylamino)pyrimidin-5-yl]-2-[(2,6-dimethylphenyl)methyl]pyrazole-3-carboxamide] it was “+ (“+” means greater than 10 uM)”. With `CC(C)CN(C)c1ccc(-c2ccc(C(=O)NS(=O)(=O)c3cccc(N)n3)c(N3[C@H](C)CC[C@@H]3C)n2)cn1` [Compound 1506, N-[(6-amino-2-pyridyl)sulfonyl]-2-[(2S,5R)-2,5-dimethylpyrrolidin-1-yl]-6-[6-[isobutyl(methyl)amino]-3-pyridyl]pyridine-3-carboxamide] the entry was “+++ (“+++” means <3 uM)”; with `Cc1cc(C)c(Oc2nc(-c3cn(C)nc3C(F)(F)F)ccc2C(=O)NS(=O)(=O)c2cccc(N)n2)c(C)c1` [Compound 812, N-[(6-amino-2-pyridyl)sulfonyl]-6-[1-methyl-3-(trifluoromethyl)pyrazol-4-yl]-2-(2,4,6-trimethylphenoxy)pyridine-3-carboxamide], “++ (“++” means between 3 uM and 10 uM)”. For `CC1CN(c2nc(-c3ccc(OCC(C)(C)C)nc3)ccc2C(=O)NS(=O)(=O)c2cccc(N)n2)C(C)(C)C1` (stereo not drawn) [Compound 1181, N-[(6-amino-2-pyridyl)sulfonyl]-6-[6-(2,2-dimethylpropoxy)-3-pyridyl]-2-(2,2,4-trimethylpyrrolidin-1-yl)pyridine-3-carboxamide], the EC30 result is reported as “+++ (“+++” means <3 uM)”.

With `CC(C)Oc1ccc(-c2ccc(C(=O)NS(=O)(=O)c3ccn[nH]3)c(N3C[C@H](C)C[C@@H](C)C3)n2)cn1` [Compound 990, 2-[(3R,5R)-3,5-dimethyl-1-piperidyl]-6-(6-isopropoxy-3-pyridyl)-N-(1H-pyrazol-5-ylsulfonyl)pyridine-3-carboxamide], the EC30 entry is on record as “+++ (“+++” means <3 uM)”. In the case of `CC1(C)CN(c2ncc(C(F)(F)F)cc2C(=O)NS(=O)(=O)c2cccc(N)n2)C(C)(C)C1` [Compound 1638, N-[(6-amino-2-pyridyl)sulfonyl]-2-(2,2,4,4-tetramethylpyrrolidin-1-yl)-5-(trifluoromethyl)pyridine-3-carboxamide], the EC30 entry was “+++ (“+++” means <3 uM)”.

For the compound `Cc1cc(C)c(Oc2nc(C3=CCOCC3)ccc2C(=O)NS(=O)(=O)c2cccc(N)n2)c(C)c1` [Compound 976, N-[(6-amino-2-pyridyl)sulfonyl]-6-(3,6-dihydro-2H-pyran-4-yl)-2-(2,4,6-trimethylphenoxy)pyridine-3-carboxamide], the EC30 entry is “++ (“++” means between 3 uM and 10 uM)”. As to `CC(C)COc1cc(-c2ccc(C(=O)NS(=O)(=O)c3cccc(N)n3)c(N3[C@H](C)CC[C@@H]3C)n2)ccc1Cl` [Compound 1197, N-[(6-amino-2-pyridyl)sulfonyl]-6-(4-chloro-3-isobutoxy-phenyl)-2-[(2S,5R)-2,5-dimethylpyrrolidin-1-yl]pyridine-3-carboxamide], the EC30 result is “+++ (“+++” means <3 uM)”. In the case of `CC(C)Oc1ccc(-c2ccc(C(=O)NS(=O)(=O)c3cccc(N)n3)c(N3CCCC(c4cccc(Cl)c4)C3)n2)cn1` (stereo not drawn) [Compound 1339, N-[(6-amino-2-pyridyl)sulfonyl]-2-[3-(3-chlorophenyl)-1-piperidyl]-6-(6-isopropoxy-3-pyridyl)pyridine-3-carboxamide] it was “+++ (“+++” means <3 uM)”.

These data come from patent US10758534B2 (Vertex Pharmaceuticals Incorporated, priority 2014, dated 2020).
